Results: US9707229B2, “Compositions and methods for treating an infection” (CMPD LICENSING, LLC, priority 2015, dated 2017)

Tests used:
Type in all cases: cell-based
Serratia marcescens = test: Expected efficacy of antibiotic agents; details: Gram: neg
Enterobacter aerogenes = test: Expected efficacy of antibiotic agents; details: Gram: neg
Neisseria meningitidis = test: Expected efficacy of antibiotic agents; details: Gram: neg
Enterococcus faecalis = test: Expected efficacy of antibiotic agents; details: Gram: pos
Enterobacter cloacae = test: Expected efficacy of antibiotic agents; details: Gram: neg
Proteus mirabilis = test: Expected efficacy of antibiotic agents; details: Gram: neg
Klebsiella pneumoniae = test: Expected efficacy of antibiotic agents; details: Gram: neg
Escherichia coli = test: Expected efficacy of antibiotic agents; details: Gram: neg
Diphtheroids = test: Expected efficacy of antibiotic agents; details: Gram: pos
[1] = test system: Staphylococcus epidermidis; test: Expected efficacy of antibiotic agents; details: Gram: pos
Chlamydia psittaci = details: expected efficacy; Gram: n/a
Clostridium difficile = test: Expected efficacy of antibiotic agents; details: Gram: anaer
Chlamydia pneumoniae = test: Expected efficacy of antibiotic agents; details: Gram: n/a
Corynebacterium jeikeium = test: Expected efficacy of antibiotic agents; details: Gram: pos
[2] = test system: Staphylococcus aureus (MSSA); test: Expected efficacy of antibiotic agents; details: Gram: pos
Mycoplasma pneumoniae = test: Expected efficacy of antibiotic agents; details: Gram: n/a
[3] = test system: Methicillin resistant staph aureus (MRSA); test: Expected efficacy of antibiotic agents; details: Gram: pos
Pseudomonas aeruginosa = test: Expected efficacy of antibiotic agents; details: Gram: neg
Bordetella pertussis = test: Expected efficacy of antibiotic agents; details: Gram: neg
Chlamydia trachomatis = test: Expected efficacy of antibiotic agents; details: Gram: n/a
Klebsiella oxytoca = test: Expected efficacy of antibiotic agents; details: Gram: neg
[4] = test system: Viridans group streptococci; test: Expected efficacy of antibiotic agents; details: Gram: pos
Moraxella catarrhalis = test: Expected efficacy of antibiotic agents; details: Gram: neg
[5] = test system: Haemophilus parainfluenzae; test: Expected efficacy of antibiotic agents; details: Gram: neg
Enterococcus faecium = test: Expected efficacy of antibiotic agents; details: Gram: pos
[6] = test system: Klebsiella (Calymmatobacterium) granulomatis; test: Expected efficacy of antibiotic agents; details: Gram: neg
Proteus vulgaris = test: Expected efficacy of antibiotic agents; details: Gram: neg
Bacteroides fragilis = test: Expected efficacy of antibiotic agents; details: Gram: anaer
Vibrio cholerae = test: Expected efficacy of antibiotic agents; details: Gram: neg
Brucella species = details: expected efficacy; Gram: neg
Streptococcus pyogenes = test: Expected efficacy of antibiotic agents; details: Gram: pos
Providencia rettgeri = test: Expected efficacy of antibiotic agents; details: Gram: neg
Enterobacter sakazakii = test: Expected efficacy of antibiotic agents; details: Gram: neg
Neisseria gonorrhoeae = test: Expected efficacy of antibiotic agents; details: Gram: neg
Streptococcus agalactiae = test: Expected efficacy of antibiotic agents; details: Gram: pos
Legionella pneumophila = details: expected efficacy; Gram: neg
Providencia stuartii = test: Expected efficacy of antibiotic agents; details: Gram: neg
Streptococcus pneumoniae = test: Expected efficacy of antibiotic agents; details: Gram: pos
[7] = test system: Corynebacterium urealyticum; test: Expected efficacy of antibiotic agents; details: Gram: pos
Pseudomonas fluorescens = test: Expected efficacy of antibiotic agents; details: Gram: neg
Peptostreptococcus = test: Expected efficacy of antibiotic agents; details: Gram: pos
Haemophilus ducreyi = test: Expected efficacy of antibiotic agents; details: Gram: neg
[8] = test system: Acinetobacter calcoaceticus; test: Expected efficacy of antibiotic agents; details: Gram: neg
Haemophilus influenzae = test: Expected efficacy of antibiotic agents; details: Gram: neg
Campylobacter jejuni = test: Expected efficacy of antibiotic agents; details: Gram: neg
Clostridium perfringens = details: expected efficacy; Gram: anaer
Yersinia pestis = details: expected efficacy; Gram: neg
Citrobacter freundii = test: Expected efficacy of antibiotic agents; details: Gram: neg
Acinetobacter baumannii = test: Expected efficacy of antibiotic agents; details: Gram: neg
Acinetobacter lwoffii = test: Expected efficacy of antibiotic agents; details: Gram: neg
Shigella sonnei = test: Expected efficacy of antibiotic agents; details: Gram: neg
Citrobacter diversus = test: Expected efficacy of antibiotic agents; details: Gram: neg
Shigella dysenteriae = test: Expected efficacy of antibiotic agents; details: Gram: neg
Shigella flexneri = test: Expected efficacy of antibiotic agents; details: Gram: neg
Shigella boydii = test: Expected efficacy of antibiotic agents; details: Gram: neg

For Colistimethate, the “efficacy against Serratia marcescens” value (Serratia marcescens) was “no”, the “efficacy against Enterobacter aerogenes” value (Enterobacter aerogenes) was “yes” and the “efficacy against Neisseria meningitidis” value (Neisseria meningitidis) was “no”. For the same compound, the “efficacy against Enterococcus faecalis” value (Enterococcus faecalis) was “no”, the “efficacy against Enterobacter cloacae” value (Enterobacter cloacae) was “yes” and the “efficacy against Proteus mirabilis” value (Proteus mirabilis) was “no”. The “efficacy against Klebsiella pneumoniae” value (Klebsiella pneumoniae) was “yes”, the “efficacy against Escherichia coli” value (Escherichia coli) was “yes” and the “efficacy against Diphtheroids” value (Diphtheroids) was “no”. For the same compound, the “efficacy against Staphylococcus epidermidis” value [1] was “no”, the “efficacy against Chlamydia psittaci” value (Chlamydia psittaci) was “no” and the “efficacy against Clostridium difficile” value (Clostridium difficile) was “no”. For the same compound, the “efficacy against Chlamydia pneumoniae” value (Chlamydia pneumoniae) was “no”, the “efficacy against Corynebacterium jeikeium” value (Corynebacterium jeikeium) was “no” and the “efficacy against Staphylococcus aureus (MSSA)” value [2] was “no”. The “efficacy against Mycoplasma pneumoniae” value (Mycoplasma pneumoniae) was “no”, the “efficacy against Methicillin resistant staph aureus (MRSA)” value [3] was “no” and the “efficacy against Pseudomonas aeruginosa” value (Pseudomonas aeruginosa) was “yes”. For the same compound, the “efficacy against Bordetella pertussis” value (Bordetella pertussis) was “no”, the “efficacy against Chlamydia trachomatis” value (Chlamydia trachomatis) was “no” and the “efficacy against Klebsiella oxytoca” value (Klebsiella oxytoca) was “yes”. For the same compound, the “efficacy against Viridans group streptococci” value [4] was “no”, the “efficacy against Moraxella catarrhalis” value (Moraxella catarrhalis) was “no” and the “efficacy against Haemophilus parainfluenzae” value [5] was “no”. The “efficacy against Enterococcus faecium” value (Enterococcus faecium) was “no”, the “efficacy against Klebsiella (Calymmatobacterium) granulomatis” value [6] was “yes” and the “efficacy against Proteus vulgaris” value (Proteus vulgaris) was “no”. The “efficacy against Bacteroides fragilis” value (Bacteroides fragilis) was “no”, the “efficacy against Vibrio cholerae” value (Vibrio cholerae) was “no” and the “efficacy against Brucella species” value (Brucella species) was “no”. The “efficacy against Streptococcus pyogenes” value (Streptococcus pyogenes) was “no”, the “efficacy against Providencia rettgeri” value (Providencia rettgeri) was “no” and the “efficacy against Enterobacter sakazakii” value (Enterobacter sakazakii) was “yes”. For the same compound, the “efficacy against Neisseria gonorrhoeae” value (Neisseria gonorrhoeae) was “no”, the “efficacy against Streptococcus agalactiae” value (Streptococcus agalactiae) was “no” and the “efficacy against Legionella pneumophila” value (Legionella pneumophila) was “no”. For the same compound, the “efficacy against Providencia stuartii” value (Providencia stuartii) was “no”, the “efficacy against Streptococcus pneumoniae” value (Streptococcus pneumoniae) was “no” and the “efficacy against Corynebacterium urealyticum” value [7] was “no”. The “efficacy against Pseudomonas fluorescens” value (Pseudomonas fluorescens) was “yes” and the “efficacy against Peptostreptococcus” value (Peptostreptococcus) was “no”.

`NC[C@H]1O[C@H](O[C@H]2[C@H](O)[C@@H](O[C@H]3O[C@H](CO)[C@@H](O)[C@H](N)[C@H]3O)[C@H](N)C[C@@H]2N)[C@H](N)C[C@@H]1O` [Tobramycin] was tested, and the “efficacy against Serratia marcescens” value (Serratia marcescens) was “yes”, the “efficacy against Enterobacter aerogenes” value (Enterobacter aerogenes) was “yes” and the “efficacy against Haemophilus ducreyi” value (Haemophilus ducreyi) was “yes”. For the same compound, the “efficacy against Neisseria meningitidis” value (Neisseria meningitidis) was “no”, the “efficacy against Enterococcus faecalis” value (Enterococcus faecalis) was “no” and the “efficacy against Acinetobacter calcoaceticus” value [8] was “no”. For the same compound, the “efficacy against Enterobacter cloacae” value (Enterobacter cloacae) was “yes”, the “efficacy against Proteus mirabilis” value (Proteus mirabilis) was “yes” and the “efficacy against Klebsiella pneumoniae” value (Klebsiella pneumoniae) was “yes”. For the same compound, the “efficacy against Escherichia coli” value (Escherichia coli) was “yes”, the “efficacy against Haemophilus influenzae” value (Haemophilus influenzae) was “yes” and the “efficacy against Diphtheroids” value (Diphtheroids) was “no”. The “efficacy against Staphylococcus epidermidis” value [1] was “no”, the “efficacy against Chlamydia psittaci” value (Chlamydia psittaci) was “no” and the “efficacy against Clostridium difficile” value (Clostridium difficile) was “no”. For the same compound, the “efficacy against Campylobacter jejuni” value (Campylobacter jejuni) was “yes”, the “efficacy against Clostridium perfringens” value (Clostridium perfringens) was “no” and the “efficacy against Yersinia pestis” value (Yersinia pestis) was “yes”. The “efficacy against Chlamydia pneumoniae” value (Chlamydia pneumoniae) was “no”, the “efficacy against Corynebacterium jeikeium” value (Corynebacterium jeikeium) was “no” and the “efficacy against Staphylococcus aureus (MSSA)” value [2] was “no”. The “efficacy against Mycoplasma pneumoniae” value (Mycoplasma pneumoniae) was “no”, the “efficacy against Methicillin resistant staph aureus (MRSA)” value [3] was “no” and the “efficacy against Citrobacter freundii” value (Citrobacter freundii) was “yes”. The “efficacy against Pseudomonas aeruginosa” value (Pseudomonas aeruginosa) was “yes”, the “efficacy against Acinetobacter baumannii” value (Acinetobacter baumannii) was “no” and the “efficacy against Bordetella pertussis” value (Bordetella pertussis) was “no”. For the same compound, the “efficacy against Chlamydia trachomatis” value (Chlamydia trachomatis) was “no”, the “efficacy against Klebsiella oxytoca” value (Klebsiella oxytoca) was “yes” and the “efficacy against Viridans group streptococci” value [4] was “no”. The “efficacy against Acinetobacter lwoffii” value (Acinetobacter lwoffii) was “no”, the “efficacy against Moraxella catarrhalis” value (Moraxella catarrhalis) was “yes” and the “efficacy against Shigella sonnei” value (Shigella sonnei) was “yes”. The “efficacy against Citrobacter diversus” value (Citrobacter diversus) was “yes”, the “efficacy against Enterococcus faecium” value (Enterococcus faecium) was “no” and the “efficacy against Klebsiella (Calymmatobacterium) granulomatis” value [6] was “yes”. The “efficacy against Proteus vulgaris” value (Proteus vulgaris) was “yes”, the “efficacy against Bacteroides fragilis” value (Bacteroides fragilis) was “no” and the “efficacy against Vibrio cholerae” value (Vibrio cholerae) was “no”. The “efficacy against Streptococcus pyogenes” value (Streptococcus pyogenes) was “no”, the “efficacy against Shigella dysenteriae” value (Shigella dysenteriae) was “yes” and the “efficacy against Shigella flexneri” value (Shigella flexneri) was “yes”. The “efficacy against Enterobacter sakazakii” value (Enterobacter sakazakii) was “yes”, the “efficacy against Neisseria gonorrhoeae” value (Neisseria gonorrhoeae) was “no” and the “efficacy against Streptococcus agalactiae” value (Streptococcus agalactiae) was “no”. For the same compound, the “efficacy against Shigella boydii” value (Shigella boydii) was “yes”, the “efficacy against Legionella pneumophila” value (Legionella pneumophila) was “no” and the “efficacy against Streptococcus pneumoniae” value (Streptococcus pneumoniae) was “no”. For the same compound, the “efficacy against Corynebacterium urealyticum” value [7] was “no”, the “efficacy against Pseudomonas fluorescens” value (Pseudomonas fluorescens) was “yes” and the “efficacy against Peptostreptococcus” value (Peptostreptococcus) was “no”.
